In US10172868B2, “Substituted quinazolines for inhibiting kinase activity” (NeuPharma, Inc., priority 2013, dated 2019):

Columns and labels:
EGFR (ErbB1) L858R = EGFR (ErbB1) L858R (Homo sapiens (Human), UniProt P00533, L858R); experiment: Z'-LYTE kinase inhibition assay, EGFR L858R; type: biochemical; details: read-out: % inhibition against EGFR L858R (Compound at 1 μM)
Procedure: Inhibitory activities of compounds against BTK, EGFR and EGFR mutants (EGFR L858R, EGFR T790M, EGFR L858R/T790M), FGFR1, FGFR2, JAK2, JAK3 and KDR were measured by Invitrogen using Z'-LYTE® Method as briefly described in the following. Test Compounds are screened in 1% DMSO (final) in the well. For 10 point titrations, 3-fold serial dilutions are conducted from the starting concentration. All ATP Solutions are diluted to a 4× working concentration in Kinase Buffer (50 mM HEPES pH 7.5, 0.01% BRIJ-35, 10 mM MgCl2, 1 mM EGTA). Peptide/Kinase Mixtures are diluted to a 2× working concentration in the appropriate Kinase Buffers as described below. (ii) Peptide/Kinase Mixtures for Measurement of EGFR (ErbB1) L858R: The 2×EGFR (ErbB1) L858R/[…] mixture is prepared in 50 mM HEPES pH 7.5, 0.01% BRIJ-35, 10 mM MgCl2, 4 mM MnCl2, 1 mM EGTA, 2 mM DTT. The final 10 μL Kinase Reaction consists of 0.2-1.68 ng EGFR (ErbB1) L858R and 2 μM […] in 50 mM HEPES pH 7.5. 0.01% BRIJ-35, 10 mM MgCl2. 2 mM MnCl2, 1 mM EGTA, 1 mM DTT. After the 1 hour Kinase Reaction incubation, 5 μL of a 1:64 dilution of Development Reagent B is added. Reaction starts by 30-second shaking of mixture consisting of 2.5 μL 4× test compound, […] 2× kinase reaction mixture and 2.5 μL 4×ATP Solution on Bar-coded Corning, low volume NBS, black 384-well plate (Corning Cat. #3676). Then the mixture is incubated for 60-minute at room temperature for the kinase reaction, followed by addition of 5 μL of a 1:1024 dilution of development reagent A and 30-second plate shake. The mixture is then incubated for another 60-minute at room temperature for development reaction. Finally fluorescence is read by plate reader.

H1299 cells = experiment: Inhibition of cancer cell growth, MTT assay, H1299; details: Homo sapiens, NCI-H1299, 72 h, read-out: IC50 in H1299 cells
Procedure: Inhibition of cell growth by compounds was measured using MTT assay (Mosmann, T., Journal of Immunological Methods, 1983, 65, 55-63). Tumor cell lines were purchased from ATCC (American Type Culture Collection, Manassas, Va.). All cell lines were maintained in RPMI 1640 (Hyclone) supplemented with 10% fetal bovine serum (FBS, Hyclone), glutamine (2 mM, Hyclone), and antibiotics (penicillin 100 U/mL and streptomycin 50 μg/mL) at 37° C. in a humidified atmosphere of 5% CO2 in air. Taxol (as a positive control. Sigma) and compounds were dissolved in DMSO (Sigma), and the final concentration of DMSO in the medium was 1%. Tumor cells were plated in 96-well plates at densities of about 4000 cells/well of a 96-well plate and allowed to adhere/grow for 24 h. They were then treated with various concentrations of drug for 72 h, 3-(4,5-Dimethylthiazol-2-yl)-2,5-diphenyltetrazolium bromide (MTT, Sigma) was used to determine the number of viable cells at the time of compound addition and the number of cells remaining after 72 h compound exposure. The number of cells remaining after 72 h was compared to the number of viable cells at the time of compound addition by measuring the absorbance at 570 nm, allowing for the calculation of growth inhibition.
All concentrations of compounds were tested in triplicate and controls were averaged over 4 wells. IC50 was calculated by plotting the concentration of compound vs the percentage of inhibition in treated wells using GraphPad Prism 5.

FGFR1 = FGFR1 (Homo sapiens (Human), UniProt P11362); experiment: Z'-LYTE kinase inhibition assay, FGFR1; type: biochemical; details: for inhibition at 0.041 µM: compound at 0.041 μM, read-out: % inhibition against FGFR1; for IC50: read-out: IC50 against FGFR1
Sequence of FGFR1 (P11362 22-822): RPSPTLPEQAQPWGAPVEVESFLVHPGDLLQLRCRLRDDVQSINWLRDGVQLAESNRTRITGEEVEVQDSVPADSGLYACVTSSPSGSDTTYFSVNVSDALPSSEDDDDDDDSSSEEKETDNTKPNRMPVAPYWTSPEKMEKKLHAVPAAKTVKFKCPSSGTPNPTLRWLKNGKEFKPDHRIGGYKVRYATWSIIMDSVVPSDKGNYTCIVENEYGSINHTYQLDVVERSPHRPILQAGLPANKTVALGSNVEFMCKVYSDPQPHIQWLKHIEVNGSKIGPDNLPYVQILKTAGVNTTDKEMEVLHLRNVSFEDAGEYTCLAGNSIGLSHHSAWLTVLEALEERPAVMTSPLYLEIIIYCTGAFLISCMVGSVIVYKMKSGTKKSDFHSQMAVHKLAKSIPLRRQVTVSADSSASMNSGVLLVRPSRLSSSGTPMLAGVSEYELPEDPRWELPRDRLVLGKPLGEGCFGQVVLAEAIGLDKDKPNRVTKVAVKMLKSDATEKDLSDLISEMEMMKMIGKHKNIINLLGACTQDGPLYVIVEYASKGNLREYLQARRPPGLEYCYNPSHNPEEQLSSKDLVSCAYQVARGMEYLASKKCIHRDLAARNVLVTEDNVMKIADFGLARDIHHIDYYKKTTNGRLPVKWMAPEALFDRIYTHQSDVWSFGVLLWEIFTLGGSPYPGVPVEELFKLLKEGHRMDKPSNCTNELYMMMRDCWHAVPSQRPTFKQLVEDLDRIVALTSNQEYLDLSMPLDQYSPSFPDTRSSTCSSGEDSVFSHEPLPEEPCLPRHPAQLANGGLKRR
Procedure: Inhibitory activities of compounds against BTK, EGFR and EGFR mutants (EGFR L858R, EGFR T790M, EGFR L858R/T790M), FGFR1, FGFR2, JAK2, JAK3 and KDR were measured by Invitrogen using Z'-LYTE® Method as briefly described in the following.
Test Compounds are screened in 1% DMSO (final) in the well. For 10 point titrations, 3-fold serial dilutions are conducted from the starting concentration. All ATP Solutions are diluted to a 4× working concentration in Kinase Buffer (50 mM HEPES pH 7.5, 0.01% BRIJ-35, 10 mM MgCl2, 1 mM EGTA). Peptide/Kinase Mixtures are diluted to a 2× working concentration in the appropriate Kinase Buffers as described below.
(v) Peptide/Kinase Mixtures for Measurement of FGFR1:
The 2×FGFR1/Tyr 04 mixture is prepared in 50 mM HEPES pH 7.5, 0.01% BRIJ-35, 10 mM MgCl2, 4 mM MnCl2, 1 mM EGTA, 2 mM DTT. The final 10 μL Kinase Reaction consists of 0.41-3.5 ng FGFR1 and 2 μM Tyr 04 in 50 mM HEPES pH 7.5, 0.01% BRIJ-35, 10 mM MgCl2, 2 mM MnCl2, 1 mM EGTA, 1 mM DTT. After the 1 hour Kinase Reaction incubation, 5 μL of a 1:64 dilution of Development Reagent B is added.
Reaction starts by 30-second shaking of mixture consisting of 2.5 μL 4× test compound, […] 2× kinase reaction mixture and 2.5 μL 4×ATP Solution on Bar-coded Corning, low volume NBS, black 384-well plate (Corning Cat. #3676). Then the mixture is incubated for 60-minute at room temperature for the kinase reaction, followed by addition of 5 μL of a 1:1024 dilution of development reagent A and 30-second plate shake. The mixture is then incubated for another 60-minute at room temperature for development reaction. Finally fluorescence is read by plate reader.
To determine IC50 of a compound against EGFR, EGFR mutant and other kinases, a series of concentrations of the compound were tested for the inhibition. […] The scale utilized in Table 4 is as follows: +++ less than 100 nM, ++ 100-500 nM and + greater than 500 nM.

BTK = BTK (Homo sapiens (Human), UniProt Q06187); experiment: Z'-LYTE kinase inhibition assay, BTK; type: biochemical; details: for IC50: read-out: IC50 against BTK; for inhibition at 0.041 µM: compound at 0.041 μM, read-out: % inhibition against BTK
Sequence of BTK (Q06187 whole entry): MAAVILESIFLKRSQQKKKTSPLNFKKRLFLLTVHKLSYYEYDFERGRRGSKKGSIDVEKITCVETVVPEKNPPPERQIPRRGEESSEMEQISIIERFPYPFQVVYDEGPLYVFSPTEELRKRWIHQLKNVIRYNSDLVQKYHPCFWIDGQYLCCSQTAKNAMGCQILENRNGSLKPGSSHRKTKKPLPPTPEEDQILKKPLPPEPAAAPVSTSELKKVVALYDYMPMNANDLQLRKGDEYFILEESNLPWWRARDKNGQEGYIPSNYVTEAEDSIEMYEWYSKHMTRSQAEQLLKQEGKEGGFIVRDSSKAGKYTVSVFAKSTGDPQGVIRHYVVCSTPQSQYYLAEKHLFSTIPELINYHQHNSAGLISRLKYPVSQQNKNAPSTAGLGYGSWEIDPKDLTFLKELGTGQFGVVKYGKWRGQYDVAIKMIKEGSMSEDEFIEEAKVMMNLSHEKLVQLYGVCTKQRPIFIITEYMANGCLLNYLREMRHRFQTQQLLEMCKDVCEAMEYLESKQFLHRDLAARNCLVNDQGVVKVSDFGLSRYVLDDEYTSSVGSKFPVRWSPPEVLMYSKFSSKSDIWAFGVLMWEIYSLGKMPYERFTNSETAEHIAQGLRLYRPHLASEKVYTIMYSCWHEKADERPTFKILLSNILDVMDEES
Method in brief: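 Z'-LYTE FRET assay with Tyr 01 peptide in 50 mM HEPES pH 7.5, 10 mM MgCl2, 1 mM EGTA, 0.01% BRIJ-35. Compounds in 1% DMSO were tested as 10-point, 3-fold titrations.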

Sequence of EGFR (ErbB1) L858R (P00533 25-1210 L858R): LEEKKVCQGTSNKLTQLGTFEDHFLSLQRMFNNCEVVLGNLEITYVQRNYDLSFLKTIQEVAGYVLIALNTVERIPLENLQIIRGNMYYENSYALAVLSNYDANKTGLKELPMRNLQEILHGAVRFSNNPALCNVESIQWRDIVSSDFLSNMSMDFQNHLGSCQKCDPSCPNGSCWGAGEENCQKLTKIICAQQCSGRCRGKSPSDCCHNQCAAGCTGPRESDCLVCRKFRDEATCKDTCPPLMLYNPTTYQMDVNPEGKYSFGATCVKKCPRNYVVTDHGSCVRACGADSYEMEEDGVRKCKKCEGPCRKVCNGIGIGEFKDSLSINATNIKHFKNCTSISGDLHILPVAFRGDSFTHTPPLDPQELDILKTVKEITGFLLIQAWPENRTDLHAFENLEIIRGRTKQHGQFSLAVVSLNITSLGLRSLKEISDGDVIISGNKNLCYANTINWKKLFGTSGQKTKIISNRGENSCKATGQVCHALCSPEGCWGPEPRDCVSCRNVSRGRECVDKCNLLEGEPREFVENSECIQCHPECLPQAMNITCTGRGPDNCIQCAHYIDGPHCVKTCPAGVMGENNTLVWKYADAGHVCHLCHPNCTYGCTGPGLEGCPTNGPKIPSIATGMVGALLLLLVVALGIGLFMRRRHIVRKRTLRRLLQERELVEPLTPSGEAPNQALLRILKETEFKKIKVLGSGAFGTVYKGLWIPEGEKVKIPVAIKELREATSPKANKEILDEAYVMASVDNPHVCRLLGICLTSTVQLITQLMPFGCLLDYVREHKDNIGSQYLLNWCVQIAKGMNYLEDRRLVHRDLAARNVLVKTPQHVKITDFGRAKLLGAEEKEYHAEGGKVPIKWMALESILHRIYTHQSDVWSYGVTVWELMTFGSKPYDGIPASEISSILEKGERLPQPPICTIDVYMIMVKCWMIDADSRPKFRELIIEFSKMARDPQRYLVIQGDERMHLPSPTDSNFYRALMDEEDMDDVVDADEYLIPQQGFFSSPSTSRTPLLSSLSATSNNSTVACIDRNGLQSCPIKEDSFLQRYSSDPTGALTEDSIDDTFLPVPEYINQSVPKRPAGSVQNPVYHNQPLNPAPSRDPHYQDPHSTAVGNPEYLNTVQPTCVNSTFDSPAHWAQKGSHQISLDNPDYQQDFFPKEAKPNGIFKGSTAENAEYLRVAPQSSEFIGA

Compound | inhibition at 1 µM (EGFR (ErbB1) L858R) [%] | inhibition at 0.041 µM (FGFR1) [%] | inhibition at 0.041 µM (BTK) [%] | IC50 (H1299 cells) [nM] | IC50 (BTK) [nM] | IC50 (FGFR1) [nM]
C=CC(=O)Nc1cccc(-c2cccc3cnc(Nc4ccc(N5CCOCC5)cc4OC)nc23)c1 [Example C002, N-(3-(2-((2-methoxy-4-morpholinophenyl)amino)quinazolin-8-yl)phenyl)acrylamide] | < 50 |  |  |  |  | 
C=CC(=O)Nc1cccc(-c2cccc3cnc(Nc4ccc(N5CCN(C)CC5)cc4OC)nc23)c1 [Example C003, N-(3-(2-((2-methoxy-4-(4-methylpiperazin-1-yl)phenyl)amino)quinazolin-8-yl)phenyl)acrylamide] | > 50 |  |  | > 500 |  | 
C=CC(=O)Nc1cccc(-c2cccc3cnc(Nc4ccc(N5CCOCC5)cc4)nc23)c1 [Example C001, N-(3-(2-((4-morpholinophenyl)amino)quinazolin-8-yl)phenyl)acrylamide] | > 50 | > 50 | > 50 | > 500 |  | 
C=CC(=O)Nc1cccc(-c2cccc3cnc(Nc4ccc(N5CCN(CCO)CC5)cc4)nc23)c1 [Example C059, N-(3-(2-((4-(4-(2-hydroxyethyl)piperazin-1-yl)phenyl)amino)quinazolin-8-yl)phenyl)acrylamide] |  | > 50 |  | > 500 | < 100 | < 100
C=CC(=O)Nc1cccc(-c2cccc3cnc(Nc4ccc(N5CCN(C)CC5)cc4)nc23)c1 [Example C021, N-(3-(2-((4-(4-methylpiperazin-1-yl)phenyl)amino)quinazolin-8-yl)phenyl)acrylamide] |  | > 50 | > 50 | 100 to 500 | < 100 | < 100
C=CC(=O)Nc1cccc(-c2cccc3cnc(Nc4ccc(N5CCN(C)CC5)nc4)nc23)c1 [Example C041, N-(3-(2-((6-(4-methylpiperazin-1-yl)pyridin-3-yl)amino)quinazolin-8-yl)phenyl)acrylamide] |  |  |  | > 500 | < 100 | < 100

Further lines, with some results ahead:

inhibition at 1 µM (EGFR (ErbB1) L858R) [%] | inhibition at 0.041 µM (FGFR1) [%] | inhibition at 0.041 µM (BTK) [%] | Compound | IC50 (H1299 cells) [nM] | IC50 (BTK) [nM] | IC50 (FGFR1) [nM]
 | < 50 |  | C=CC(=O)Nc1cccc(-c2cccc3cnc(Nc4ccc(N5CCN(C)CC5)cc4F)nc23)c1 [Example C044, N-(3-(2-((2-fluoro-4-(4-methylpiperazin-1-yl)phenyl)amino)quinazolin-8-yl)phenyl)acrylamide] | > 500 | < 100 | 
< 50 |  | > 50 | C=CC(=O)Nc1cccc(-c2nccc3cnc(Nc4ccc(N5CCOCC5)cc4)nc23)c1 [Example C012, N-(3-(2-((4-morpholinophenyl)amino)pyrido[3,4-d]pyrimidin-8-yl)phenyl)acrylamide] |  |  | 
< 50 |  |  | Fc1ccccc1-c1cccc2cnc(Nc3ccc(N4CCOCC4)cc3)nc12 [Example C010, 8-(2-fluorophenyl)-N-(4-morpholinophenyl)quinazolin-2-amine] |  |  | 
< 50 |  |  | Clc1ccccc1-c1cccc2cnc(Nc3ccc(N4CCOCC4)cc3)nc12 [Example C011, 8-(2-chlorophenyl)-N-(4-morpholinophenyl)quinazolin-2-amine] |  |  | 
 | > 50 | > 50 | C=CC(=O)Nc1cccc(-c2cccc3cnc(Nc4ccc(N5CCN(CCF)CC5)cc4)nc23)c1 [Example C053, N-(3-(2-((4-(4-(2-fluoroethyl)piperazin-1-yl)phenyl)amino)quinazolin-8-yl)phenyl)acrylamide] |  |  | 
< 50 |  |  | Fc1ccc(Cl)cc1-c1cccc2cnc(Nc3ccc(N4CCOCC4)cc3)nc12 [Example C007, 8-(5-chloro-2-fluorophenyl)-N-(4-morpholinophenyl)quinazolin-2-amine] |  |  | 
< 50 |  | < 50 | Fc1cccc(-c2cccc3cnc(Nc4ccc(N5CCOCC5)cc4)nc23)c1 [Example C009, 8-(3-fluorophenyl)-N-(4-morpholinophenyl)quinazolin-2-amine] |  |  | 
> 50 |  | > 50 | C=CC(=O)Nc1cccc(-c2nccc3c(N)nc(Nc4ccc(N5CCOCC5)cc4)nc23)c1 [Example C005, N-(3-(4-amino-2-((4-morpholinophenyl)amino)pyrido[3,4-d]pyrimidin-8-yl)phenyl)acrylamide] |  |  | 
< 50 | < 50 | < 50 | Clc1cccc(-c2cccc3cnc(Nc4ccc(N5CCOCC5)cc4)nc23)c1 [Example C008, 8-(3-chlorophenyl)-N-(4-morpholinophenyl)quinazolin-2-amine] |  |  | 
< 50 |  | < 50 | c1ccc(-c2cccc3cnc(Nc4ccc(N5CCOCC5)cc4)nc23)cc1 [Example C004, N-(4-morpholinophenyl)-8-phenylquinazolin-2-amine] |  |  | 
